# From US20180177899A1, “HYDROPHILIC PARTICLES, METHOD FOR PRODUCING THE SAME, AND CONTRAST AGENT UTILIZING SAME” (Korea Basic Science Institute, priority 2015, published 2018)
# Assays:
# [1] = Surface charge (zeta potential) by particle size surface charge analyzer; assay type: physicochemical; conditions: aqueous phase
# Method: The surface charge of the nanoparticle of Example 2 was measured using a particle size surface charge analyzer (Zetasizer Nano-ZS, […]). In addition, the surface charge of a pure indocyanine green solution was measured using the particle size surface charge analyzer.
# [2] = Optical stability under continuous 785 nm laser irradiation; assay type: physicochemical; conditions: 30 minutes
# Method: A slide glass on which the nanoparticle of Example 4 was spin coated thereon was prepared. A region of the slide glass was selected, and was continuously irradiated by 785 nm laser for 30 minutes.
# FIGS. 14A to 14D are a single particle fluorescence images showing the optical stability of an up-conversion nanoparticle coated with indocyanine green.
smiles,measurement,setting,value
CC1(C)C(/C=C/C=C/C=C/C=C2\N(CCCCS(=O)(=O)O)c3ccc4ccccc4c3C2(C)C)=[N+](CCCCS(=O)(=O)[O-])c2ccc3ccccc3c21 [indocyanine green],surface charge,[1],−25.1 mV
same,fluorescence signal of indocyanine green after laser irradiation (optical stability),[2],relatively much reduced or disappeared after 30 minutes
